Drawing on BindingDB's records for doi:10.1016/j.bmcl.2013.01.064 (Bristol Myers Squibb, 2013), this text covers IC50 for 3 compounds.

The target in this test is Potassium voltage-gated channel subfamily A member 5 (Homo sapiens, UniProt P22460). Briefly: Antagonist activity at human Kv1.5 expressed in mouse L929 cells assessed as inhibition of delayed rectifier repolarization current by patch clamp assay.
Sequence of Potassium voltage-gated channel subfamily A member 5 (P22460 whole entry): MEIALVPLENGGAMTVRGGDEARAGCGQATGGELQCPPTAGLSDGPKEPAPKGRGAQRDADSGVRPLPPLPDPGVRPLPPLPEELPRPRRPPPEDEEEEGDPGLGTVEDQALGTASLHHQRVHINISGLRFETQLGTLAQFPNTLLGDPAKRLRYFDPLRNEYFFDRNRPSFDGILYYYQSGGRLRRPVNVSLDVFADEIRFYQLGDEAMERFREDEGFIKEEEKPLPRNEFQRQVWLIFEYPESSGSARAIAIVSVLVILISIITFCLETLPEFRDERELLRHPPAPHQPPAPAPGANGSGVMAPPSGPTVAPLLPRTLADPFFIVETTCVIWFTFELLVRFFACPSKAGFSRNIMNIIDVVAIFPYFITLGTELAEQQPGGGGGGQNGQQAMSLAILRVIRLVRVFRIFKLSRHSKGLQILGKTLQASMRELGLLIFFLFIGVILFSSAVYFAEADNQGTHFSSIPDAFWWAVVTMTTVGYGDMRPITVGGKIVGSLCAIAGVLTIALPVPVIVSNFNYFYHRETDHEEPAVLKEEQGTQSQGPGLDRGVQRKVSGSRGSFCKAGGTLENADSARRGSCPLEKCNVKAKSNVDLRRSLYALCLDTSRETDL
One may read the IC50 as the concentration needed to halve the response being measured. Consider `CCOc1cccc(-n2ncnc2C2C(C)=Nc3cc(C(F)(F)F)nn3[C@@H]2c2ccc(Cl)c(Cl)c2)n1` (stereo partly drawn), for which the half-inhibitory concentration (IC50) came to 223 nM.
Consider `CC1=Nc2ccnn2[C@H](c2ccc(Cl)c(Cl)c2)C1c1ncnn1C(C)(C)C` (stereo partly drawn), for which the half-inhibitory concentration (IC50) turned out to be 223 nM.
As for `CC1=Nc2cc(C(F)(F)F)nn2[C@H](c2ccc(Cl)c(Cl)c2)C1c1ncnn1C1CCC(C(F)(F)F)CC1` (stereo partly drawn), the IC50 is 607 nM.
